Source: patent US20240180891A1, “SYNERGISTIC MODULATORS OF ALPHA-DICARBONYL DETOXIFICATION AND THEIR USE FOR INDUCING WEIGHT LOSS AND THE TREATMENT OF DIABETIC PATHOLOGIES” (Buck Institute for Research on Aging, priority 2020, published 2024)

Experiments:
C57BL/6 mice = tested on: C57BL/6 mice
Protocol: Percent weight increases indicate the percent change from starting body weights to the weights at the end of the two-week diet. Daily food consumption was measured twice weekly.
Next, we tested if MG-H1, which is detectable in human CSF and serum (Monnier et al. (2005) Ann. N. Y. Acad. Sci. 1043: 567-581), influences feeding in mice. We gave 12 week-old WT mice 100 μM or 200 μM MG-H1 via supplementation of drinking water for two weeks.

C. elegans = conditions: feeding of AGE, data not shown
Excerpt: MGO-derived AGEs have been found in proteins with aging and in age-related diseases (see, e.g., Li et al. (2012) J. Neurol. Sci. 317: 1-5; Cone (2005) Nat. Neurosci. 8: 571-578; Mitchell et al. (2017) Oncotarget, 8: 17453-17474; Li et al. (2012) Neurobiol. Aging 33: 1400-1410). […] To investigate the impact of specific AGEs, we provided synthesized individual AGEs and examined their biological effects. We adapted published procedures to synthesize four AGEs on a gram scale: carboxymethyl-lysine (CML), carboxyethyl-lysine (CEL), fructose-lysine (F-Ly), and methylglyoxal-derived hydroimidazolone MG-H1. CEL and MG-H1 are MGO derived AGEs while CML is glyoxal derived, and F-LY is glucose derived.

[1] = single compounds; cited from earlier work
[2] = recent human trial (Bierhaus et al.); cited from earlier work
C. elegans glod-4 mutant = C. elegans glod-4 mutant screen of natural product library for compounds mitigating MGO toxicity; format: in vivo; conditions: C. elegans and mammalian neuronal cells; Tim Tec NPL-640 library
Excerpt: (§1) We used C. elegans to screen for compounds that mitigate the detrimental phenotypes in the worm glod-4 mutant. […] This included alpha-lipoic acid (ALA), a drug already prescribed for diabetic neuropathy in certain countries (see, e.g., Giacco et al. (2014) Diabetes 63: 291-299).

[3] = target: T1, transient receptor potential cation channel (TRPA1) (Caenorhabditis elegans, UniProt Q18297); assay: ALA mechanism: TRPA1 activation and glyoxalase expression; design: species or system C. elegans
T1 sequence (Q18297 1-1211): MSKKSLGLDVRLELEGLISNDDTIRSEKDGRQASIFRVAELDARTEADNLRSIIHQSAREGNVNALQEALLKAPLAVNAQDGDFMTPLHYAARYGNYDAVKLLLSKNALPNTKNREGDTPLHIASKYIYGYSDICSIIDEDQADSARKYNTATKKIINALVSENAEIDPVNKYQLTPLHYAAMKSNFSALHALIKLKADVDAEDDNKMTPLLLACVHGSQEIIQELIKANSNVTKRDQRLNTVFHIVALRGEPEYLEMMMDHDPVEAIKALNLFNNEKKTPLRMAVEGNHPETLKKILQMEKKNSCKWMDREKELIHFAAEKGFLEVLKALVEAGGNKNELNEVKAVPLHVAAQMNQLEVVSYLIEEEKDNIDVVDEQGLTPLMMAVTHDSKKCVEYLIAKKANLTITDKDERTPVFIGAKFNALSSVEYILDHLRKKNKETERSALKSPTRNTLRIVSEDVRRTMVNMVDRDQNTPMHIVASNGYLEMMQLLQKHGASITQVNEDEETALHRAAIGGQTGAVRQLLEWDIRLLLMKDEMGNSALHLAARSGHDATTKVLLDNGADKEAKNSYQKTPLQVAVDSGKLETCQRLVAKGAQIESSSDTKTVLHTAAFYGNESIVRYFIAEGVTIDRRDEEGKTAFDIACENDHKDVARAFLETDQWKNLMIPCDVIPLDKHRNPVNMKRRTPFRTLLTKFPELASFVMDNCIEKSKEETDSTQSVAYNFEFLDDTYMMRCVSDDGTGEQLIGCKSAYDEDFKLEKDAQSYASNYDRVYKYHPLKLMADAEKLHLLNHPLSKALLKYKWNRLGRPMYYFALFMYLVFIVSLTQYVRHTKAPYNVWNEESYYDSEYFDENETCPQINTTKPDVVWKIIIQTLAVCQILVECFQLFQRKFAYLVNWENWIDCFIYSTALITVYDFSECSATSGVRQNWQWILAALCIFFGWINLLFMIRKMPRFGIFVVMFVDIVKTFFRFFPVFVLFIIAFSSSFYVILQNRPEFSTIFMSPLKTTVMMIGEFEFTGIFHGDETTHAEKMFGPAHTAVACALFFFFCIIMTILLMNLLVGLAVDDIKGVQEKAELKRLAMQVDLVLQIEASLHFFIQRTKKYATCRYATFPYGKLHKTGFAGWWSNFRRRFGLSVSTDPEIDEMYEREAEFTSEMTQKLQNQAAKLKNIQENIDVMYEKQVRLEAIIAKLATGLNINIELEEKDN
Excerpt: FIG. 4 illustrates a proposed model for how MGO is sensed by TRPA1 to activate SKN-1/Nrf2 and mediate detoxification of MGO through downstream glyoxalases in worms and mammals. MGO is sensed by TRPA-1 leading to the activation of SKN-1/Nrf2 pathway. This in turn activates downstream glyoxalases GLO1 and DJ1 (Id.).
as §1

[4] = higher dose (200 μM) in drinking water, two weeks

Structure (SMILES): CC1NC(NCCC[C@H](N)C(=O)O)=NC1=O (some centres unmarked) [MG-H1, hydroimidazolone Nδ-(5-hydro-5-methyl-4-imidazolon-2-yl) ornithine]
- hourly food intake (C57BL/6 mice; data not shown): increase in hourly food intake
- water intake (C57BL/6 mice; data not shown): relatively similar water intake
- energy expenditure (C57BL/6 mice; higher dose): reactive increase
- oxygen consumption (C57BL/6 mice; higher dose): reactive increase
- body weights (C57BL/6 mice; [4]): significant increase
- food intake (C57BL/6 mice; [4]): significant increase
- food intake (C. elegans): enhances food intake
- triglyceride content (C. elegans): increases triglyceride content

Structure (SMILES): O=C(O)CCCCC1CCSS1 (stereo not drawn) [alpha-lipoic acid, 1,2-dithiolane-3-pentanoic acid]
- protection against obesity [1]: protect against obesity
- weight [2]: effectiveness in reducing weight
- amelioration of deleterious effects of MGO toxicity (C. elegans glod-4 mutant): ameliorate the deleterious effects of MGO toxicity
- TRPA1 activation [3]: activates
- expression of glyoxalases (DJ1 and GLO1) [3]: enhancing the expression

Structure (SMILES): NC(=O)c1cccnc1 [nicotinamide]
- protection against obesity [1]: protect against obesity
